Measurements published in US10294202B2, “Pyrrolidinones as herbicides” (FMC Corporation, priority 2013, dated 2019).

Columns and labels:
ryegrass, Italian = assay: Test A pre-/postemergence herbicide test; format: in vivo, Lolium multiflorum; conditions: for Plant response rating, Ryegrass, Italian: 0 to 100 scale
Method in brief: (§1)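 Seeds sown in loam soil/sand blend received a preemergence directed soil spray of test chemical in non-phytotoxic solvent with surfactant; postemergence plants (2–10 cm, one- to two-leaf stage) were sprayed with the same formulation. After about 10 days in greenhouse, injury was rated visually versus untreated controls, 0 (no effect) to 100 (complete control).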

pigweed = assay: Test A pre-/postemergence herbicide test; format: in vivo, Amaranthus retroflexus; conditions: for Plant response rating, Pigweed: 0 to 100 scale
Method in brief: as §1

ragweed = assay: Test A pre-/postemergence herbicide test; format: in vivo, Ambrosia elatior; conditions: for Plant response rating, Ragweed: 0 to 100 scale
Method in brief: as §1

ducksalad = assay: Test C flooded paddy test; format: in vivo, Heteranthera limosa; conditions: Flood
Method in brief: (§2)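 2-leaf stage; flood 3 cm over soil; compound into paddy water; depth held; greenhouse 13–15 d; visual % control vs untreated (0 = none, 100 = complete); "-" = not tested.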

kochia = assay: Test A pre-/postemergence herbicide test; format: in vivo, Kochia scoparia; conditions: for Plant response rating, Kochia: 0 to 100 scale
Method in brief: as §1

giant foxtail = assay: Test A pre-/postemergence herbicide test; format: in vivo, Setaria faberii; conditions: for Plant response rating, Foxtail, Giant: 0 to 100 scale
Method in brief: as §1

galium = assay: Test A postemergence herbicide test; format: in vivo, Galium aparine
Method in brief: (§3)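 Plants at the one- to two-leaf stage, 2–10 cm tall, grown in loam/sand pots, received postemergence sprays of the test chemicals. After about 10 days in the greenhouse, injury was scored visually against untreated controls on a 0–100 scale (0 none, 100 complete control).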

corn = assay: Test A pre-/postemergence herbicide test; format: in vivo, Zea mays; conditions: Postemergence
Method in brief: as §1

sedge, umbrella = assay: Test C flooded paddy test; format: in vivo, Cyperus difformis; conditions: Flood
Method in brief: as §2

rice = assay: Test C flooded paddy test; format: in vivo, Oryza sativa; conditions: Flood
Method in brief: as §2

barnyardgrass [1] = assay: Test C flooded paddy test; format: in vivo, Echinochloa crus-galli; conditions: Flood
Method in brief: as §2

barnyardgrass [2] = assay: Test A pre-/postemergence herbicide test; format: in vivo, Echinochloa crus-galli; conditions: for Plant response rating, Barnyardgrass: 0 to 100 scale
Method in brief: as §1

blackgrass = assay: Test A postemergence herbicide test; format: in vivo, Alopecurus myosuroides
Method in brief: as §3

wheat = assay: Test A pre-/postemergence herbicide test; format: in vivo, Triticum aestivum; conditions: Postemergence
Method in brief: as §1

[3] = 125 g ai/ha, visual rating, 0 no effect, 100 complete control, approximately 10 days, preemergence
[4] = Postemergence, 125 g ai/ha, 0 is no effect, 100 is complete control
[5] = preemergence, 500 g ai/ha, 0 is no effect and 100 is complete control
[6] = 125 g ai/ha, scale of 0 to 100 where 0 is no effect and 100 is complete control, 13 to 15 days
[7] = 250 g ai/ha, scale of 0 to 100 where 0 is no effect and 100 is complete control, 13 to 15 days
[8] = 125 g ai/ha, 0 to 100 scale, 0 is no effect, 100 is complete control

O=C1NC[C@@H](c2cccc(C(F)(F)F)c2)[C@@H]1C(=O)Nc1cccc(F)c1F [Compound 205]
Plant response rating, Ryegrass, Italian (ryegrass, Italian; [3]): 0
Plant response rating, Ryegrass, Italian (ryegrass, Italian; [4]): 0
Ryegrass, Italian plant response rating (0 to 100 scale, 0 is no effect, 100 is complete control) (ryegrass, Italian; Postemergence, 500 g ai/ha): 0
Plant response rating, Ryegrass, Italian (ryegrass, Italian; [5]): 20
Plant response rating, Pigweed (pigweed; [3]): 0
Plant response rating, Pigweed (pigweed; [4]): 0
Pigweed plant response rating (0 to 100 scale, 0 is no effect, 100 is complete control) (pigweed; Postemergence, 500 g ai/ha): 30
Plant response rating, Pigweed (pigweed; [5]): 20
Plant response rating, Ragweed (ragweed; [3]): 0
Plant response rating, Ragweed (ragweed; [4]): 0
Ragweed plant response rating (0 to 100 scale, 0 is no effect, 100 is complete control) (ragweed; Postemergence, 500 g ai/ha): 0
Plant response rating, Ragweed (ragweed; [5]): 30
Plant response rating, Ducksalad (ducksalad; [6]): 0
Plant response rating, Ducksalad (ducksalad; [7]): 0
Plant response rating, Ducksalad (ducksalad; 500 g ai/ha, scale 0 to 100): 50
Plant response rating, Ducksalad (ducksalad; 1000 g ai/ha, scale 0 to 100): 65
Plant response rating, Kochia (kochia; [3]): 20
Plant response rating, Kochia (kochia; [4]): 0
Kochia plant response rating (0 to 100 scale, 0 is no effect, 100 is complete control) (kochia; Postemergence, 500 g ai/ha): 40
Plant response rating, Kochia (kochia; [5]): 50
Plant response rating, Foxtail, Giant (giant foxtail; [3]): 60
Plant response rating, Foxtail, Giant (giant foxtail; [4]): 70
Foxtail, Giant plant response rating (0 to 100 scale, 0 is no effect, 100 is complete control) (giant foxtail; Postemergence, 500 g ai/ha): 90
Plant response rating, Foxtail, Giant (giant foxtail; [5]): 90
Plant response rating, Galium (galium; [8]): 30
Galium plant response rating (0 to 100 scale, 0 is no effect, 100 is complete control) (galium; 500 g ai/ha): 60
Plant response rating, Corn (corn; [8]): 0
Corn plant response rating (0 to 100 scale, 0 is no effect, 100 is complete control) (corn; 500 g ai/ha): 0
Plant response rating, Sedge, Umbrella (sedge, umbrella; [6]): 0
Plant response rating, Sedge, Umbrella (sedge, umbrella; [7]): 0
Plant response rating, Sedge, Umbrella (sedge, umbrella; 500 g ai/ha, scale 0 to 100): 0
Plant response rating, Sedge, Umbrella (sedge, umbrella; 1000 g ai/ha, scale 0 to 100): 0
Plant response rating, Rice (rice; [6]): 0
Plant response rating, Rice (rice; [7]): 0
Plant response rating, Rice (rice; 500 g ai/ha, scale 0 to 100): 0
Plant response rating, Rice (rice; 1000 g ai/ha, scale 0 to 100): 0
Plant response rating, Barnyardgrass (barnyardgrass [1]; [6]): 0
Plant response rating, Barnyardgrass (barnyardgrass [1]; [7]): 20
Plant response rating, Barnyardgrass (barnyardgrass [1]; 500 g ai/ha, scale 0 to 100): 30
Plant response rating, Barnyardgrass (barnyardgrass [1]; 1000 g ai/ha, scale 0 to 100): 45
Plant response rating, Barnyardgrass (barnyardgrass [2]; [3]): 30
Plant response rating, Barnyardgrass (barnyardgrass [2]; [4]): 40
Barnyardgrass plant response rating (0 to 100 scale, 0 is no effect, 100 is complete control) (barnyardgrass [2]; Postemergence, 500 g ai/ha): 70
Plant response rating, Barnyardgrass (barnyardgrass [2]; [5]): 80
Plant response rating, Blackgrass (blackgrass; [8]): 0
Blackgrass plant response rating (0 to 100 scale, 0 is no effect, 100 is complete control) (blackgrass; 500 g ai/ha): 70
Plant response rating, Wheat (wheat; [8]): 0
Wheat plant response rating (0 to 100 scale, 0 is no effect, 100 is complete control) (wheat; 500 g ai/ha): 40
